Counter-ions that a name gives are not always drawn. The source made the active and inactive calls. No cut-off for these calls is given here.
Legend:
Homo sapiens = species on record: Homo sapiens; test: Growth inhibition of normal human hematopoietic progenitor cells by colony forming assay; assay type: functional
[1] = Growth inhibition of JAK2 V617F mutant expressing hematopoietic progenitor cells isolated from polycythemia vera patient by colony forming assay; assay type: functional, cell-based; conditions: Homo sapiens
Polycythemia vera [2] = test: Growth inhibition of JAK2 V617F mutant expressing human polycythemia vera hematopoietic progenitor cells at 5 uM by erythroid burst-forming unit assay; assay type: functional, cell-based
Polycythemia vera [3] = test: Growth inhibition of JAK2 V617F mutant deficient human polycythemia vera hematopoietic progenitor cells at 5 uM by erythroid burst-forming unit assay; assay type: functional, cell-based
[4] = Growth inhibition of JAK2 V617F mutant expressing human erythroleukemia cells after 24 hrs; assay type: functional, cell-based; conditions: Leukemia cell
[5] = Growth inhibition of mouse erythroleukemia cells after 24 hrs; assay type: functional, cell-based; conditions: Leukemia cell
Jurkat = test: Growth inhibition of human Jurkat cells after 24 hrs; assay type: functional, cell-based
[6] = Inhibition of formation of erythroid burst-forming units in human polycythemia vera cells at 1 uM; conditions: read-out: INH

SMILES | Activity (Homo sapiens) | IC50 [1] | Activity (Polycythemia vera [2]) | Activity (Polycythemia vera [3]) | IC50 [4] | IC50 [5] | IC50 (Jurkat) | inhibition at 1 µM [6]
C#Cc1cccc(Nc2ncnc3cc(OCCOC)c(OCCOC)cc23)c1 [ERLOTINIB] | inactive | 5000 nM | Active | inactive | 2000 nM | 2000 nM | 2000 nM | 
Cc1ccc(NC(=O)c2ccc(CN3CCN(C)CC3)cc2)cc1Nc1nccc(-c2cccnc2)n1 [IMATINIB MESYLATE] |  |  |  |  |  |  |  | 73%

Source: ChEMBL document CHEMBL1156429 (J Biol Chem, 2007)
